“Also recorded” adds a separate entry of the source.
Columns and labels:
[1] = tested on: Human promyelocytic leukemia (HL60) cells; experiment: HL-60 cell differentiation (nitro blue tetrazolium reduction); assay type: cell-based; conditions: for EC50: HL60 cells, 4 days
Protocol: The study drugs were dissolved in ethanol and the concentrations determined using UV spectrophotometry. Serial dilutions were prepared so that a range of drug concentrations could be tested without changing the final concentration of ethanol (≦0.2%) present in the cell cultures.
Human promyelocytic leukemia (HL60) cells were grown in RPMI-1640 medium containing 10% fetal bovine serum. The cells were incubated at 37° C. in the presence of 5% CO2.
HL60 cells were plated at 1.2×10^5 cells/ml. Eighteen hours after plating, cells in duplicate were treated with drug. Four days later, the cells were harvested and a nitro blue tetrazolium reduction assay was performed (Collins et al., 1979; J. Exp. Med. 149:969-974). The percentage of differentiated cells was determined by counting a total of 200 cells and recording the number that contained intracellular black-blue formazan deposits. Verification of differentiation to monocytic cells was determined by measuring phagocytic activity (data not shown).

[2] = tested on: bone calcium mobilization; experiment: Bone calcium mobilization (serum calcium) in vitamin D-deficient rats; assay type: in vivo, Sprague-Dawley rats; conditions: for bone calcium mobilization activity / serum calcium: vitamin D-deficient rats on low calcium diet (0.02%)
Protocol: (§1) Male, weanling Sprague-Dawley rats were placed on Diet 11 (Suda et al, J. Nutr. 100:1049, 1970) (0.47% Ca)+vitamins AEK for one week followed by Diet 11 (0.02% Ca)+vitamins AEK for 3 weeks. The rats were then switched to the same diet containing 0.47% Ca for one week followed by two weeks on the same diet containing 0.02% Ca. Dose administration began during the last week on 0.02% calcium diet. Four consecutive ip doses were given approximately 24 hours apart. Twenty-four hours after the last dose, blood was collected from the severed neck and the concentration of serum calcium determined by atomic absorption spectrometry as a measure of bone calcium mobilization. The first 10 cm of the intestine was also collected for intestinal calcium transport analysis using the everted gut sac method.

[3] = target: T1, full-length recombinant rat vitamin D receptor (Rattus norvegicus, UniProt P13053); experiment: Vitamin D receptor competitive binding with [3H]-1,25(OH)2D3; conditions: full-length recombinant rat VDR
T1 construct: Full-length recombinant rat receptor was expressed in E. coli; histidine tag (C); made in house; host or cells: E. coli BL21 (DE3) Codon Plus RIL
T1 sequence (P13053 1-423): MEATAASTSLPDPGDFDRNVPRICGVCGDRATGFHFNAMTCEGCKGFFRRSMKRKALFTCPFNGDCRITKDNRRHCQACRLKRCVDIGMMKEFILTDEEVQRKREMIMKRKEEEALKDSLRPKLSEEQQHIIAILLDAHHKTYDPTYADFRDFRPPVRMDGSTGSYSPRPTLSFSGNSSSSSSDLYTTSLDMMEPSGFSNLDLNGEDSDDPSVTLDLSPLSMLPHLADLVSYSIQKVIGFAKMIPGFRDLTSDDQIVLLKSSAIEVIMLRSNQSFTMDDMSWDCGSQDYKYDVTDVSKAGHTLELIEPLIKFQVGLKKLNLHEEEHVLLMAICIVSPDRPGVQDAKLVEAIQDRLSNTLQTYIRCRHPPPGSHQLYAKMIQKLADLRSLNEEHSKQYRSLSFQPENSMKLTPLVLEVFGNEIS
Protocol: Full-length recombinant rat receptor was expressed in E. coli BL21 (DE3) Codon Plus RIL cells and purified to homogeneity using two different column chromatography systems. The first system was a nickel affinity resin that utilizes the C-terminal histidine tag on this protein. The protein that was eluted from this resin was further purified using ion exchange chromatography (S-Sepharose Fast Flow). Aliquots of the purified protein were quick frozen in liquid nitrogen and stored at −80° C. until use. For use in binding assays, the protein was diluted in TEDK50 (50 mM Tris, 1.5 mM EDTA, pH7.4, 5 mM DTT, 150 mM KCl) with 0.1% Chaps detergent. The receptor protein and ligand concentration was optimized such that no more than 20% of the added radiolabeled ligand was bound to the receptor.
Radiolabeled and unlabeled ligands were added to 100 mcl of the diluted protein at a final ethanol concentration of ≦10%, mixed and incubated overnight on ice to reach binding equilibrium. The following day, 100 mcl of hydroxylapatite slurry (50%) was added to each tube and mixed at 10-minute intervals for 30 minutes. The hydroxylapaptite was collected by centrifugation and then washed three times with Tris-EDTA buffer (50 mM Tris, 1.5 mM EDTA, pH 7.4) containing 0.5% Titron X-100. After the final wash, the pellets were transferred to scintillation vials containing 4 ml of Biosafe II scintillation cocktail, mixed and placed in a scintillation counter. Total binding was determined from the tubes containing only radiolabeled ligand.

[4] = tested on: 24-hydroxylase (24Ohase) gene promoter in ROS 17/2.8 (bone) cells; experiment: In vitro transcription assay, 24-hydroxylase gene promoter luciferase reporter; assay type: cell-based; conditions: for transcriptional activity in bone cells compared to 1α,25-dihydroxyvitamin D3: 24-hydroxylase gene; for EC50: ROS 17/2.8 cells, 16 hours after dosing, read-out: EC50, transcriptional activity in bone cells (24-hydroxylase gene)
Protocol: Transcription activity was measured in ROS 17/2.8 (bone) cells that were stably transfected with a 24-hydroxylase (24Ohase) gene promoter upstream of a luciferase reporter gene (Arbour et al., 1998). Cells were given a range of doses. Sixteen hours after dosing the cells were harvested and luciferase activities were measured using a luminometer. RLU=relative luciferase units.

[5] = tested on: intestinal calcium transport; experiment: Intestinal calcium transport, everted gut sac method; assay type: in vivo, Sprague-Dawley rats; conditions: vitamin D-deficient rats
Protocol: as §1

| Structure (SMILES) | EC50 [1] [nM] | bone calcium mobilization activity / serum calcium [2] | EC50 ([1]; Homo sapiens, HL-60, 96 h) [nM] | binding affinity to vitamin D receptor compared to 1,25-(OH)2D3 [3] | transcriptional activity in bone cells compared to 1α,25-dihydroxyvitamin D3 [4] | EC50 [4] [nM] | intestinal calcium transport activity compared to 1,25(OH)2D3 [5] | potency in mobilization of bone calcium relative to native hormone at the same dose ([2]; 780 pmol/day for 4 consecutive days, rats on low calcium diet (0.02%)) | potency in releasing bone calcium stores relative to native hormone ([2]; vitamin D-deficient rats, times more potent than 1,25(OH)2D3) | potency on HL-60 cell differentiation compared to 1,25(OH)2D3 [1] | Ki ([3]; read-out: Ki, competition with [3H]-1,25(OH)2D3 for binding to vitamin D receptor) [nM] | mobilization of bone calcium compared to native hormone at the same dose ([2]; 87 pmol/day for 4 consecutive days) |
| --- | --- | --- | --- | --- | --- | --- | --- | --- | --- | --- | --- | --- |
| C=C1/C(=C\C=C2/CCC[C@]3(C)[C@@H]([C@H](C)CCCC(C)(C)O)CC[C@@H]23)C[C@@H](O)C[C@@H]1O [1α,25-dihydroxyvitamin D3, reference compound] | 2 | increased serum calcium levels at the dosages tested |  |  |  |  |  |  |  |  |  |  |
| C=C1CC/C(=C/C=C2\CCC[C@]3(C)[C@@H]([C@@H](C)CCCC(C)(C)O)CC[C@@H]23)C[C@H]1O [3-desoxy-2MD, (20S)-3-desoxy-2-methylene-1α,25-dihydroxy-19-nor-vitamin D3] |  |  | 0.7 | about the same affinity | about the same transcriptional activity | 0.3 | about one half log less potent; also recorded: at least one half log less potent than 1,25(OH)2D3 | about 10 times | at least 10 times |  |  |  |
| C=C1CC/C(=C/C=C2\CCC[C@]3(C)[C@@H]([C@H](C)CCCC(C)(C)O)CC[C@@H]23)C[C@H]1O [3D-MJ, (20R)-3-desoxy-2-methylene-1α,25-dihydroxy-19-nor-vitamin D3] |  | about the same potency as the native hormone | 1 | about the same affinity | about the same transcriptional activity | 0.3 | about the same potency as 1,25(OH)2D3; also recorded: about as potent |  |  | about the same potency as 1,25(OH)2D3 | 0.7 | only slightly less mobilization of bone calcium than the native hormone |
